Data taken from patent US20090291919A1, “Compositions and Methods for Treating or Preventing Ophthalmic Light Toxicity” (University of Florida Research Foundation, Inc., priority 2006, published 2009).
“Also recorded” adds a separate entry of the source.

What was measured:
[1] = Absorption of the compound by itself in the visible spectrum
Description: (§1) To test whether this compound associates with wild-type (WT) opsin to form pigment, it was added to opsin solution in vitro.

[2] = tested on: purified wt (wild-type) opsin; assay: Pigment formation of compound alone with opsin (500 nm absorbing pigment); details: compound added to opsin without 11-cis-retinal
Description: as §1

purified WT opsin = assay: Opsin regeneration: pigment (rhodopsin) formation with 11-cis-retinal in presence of compound; details: for inhibition of pigment formation of opsin with 11-cis-retinal / of binding of 11-cis-retinal to opsin: in vitro, result in words
Description: In a typical competition assay of the invention, a compound is sought that will tie up the retinal binding pocket of the opsin protein. Thus, the assay seeks to identify a non-retinoid compound (one that will not be tightly regulated by the retina as to amount entering rod cells) that competes with 11-cis-retinal. Over time this will slow the rate of formation of rhodopsin relative to the rate when 11-cis-retinal alone is present. In one embodiment, the assay is conducted in the presence of 11-cis-retinal, and the rate of formation of rhodopsin is measured as a way of determining competition for the retinal binding pocket, for example, by determining the rate of increase in the 500 nm peak characteristic for rhodopsin. No antibodies for rhodopsin are required for this assay.

Compound	absorption in the visible spectrum [1]	formation of a 500 nm absorbing pigment with opsin [2]	extent of inhibition of regeneration compared with β-ionone (purified WT opsin; SN10011 2 and 5 mM vs β-ionone)	inhibition of pigment formation of opsin with 11-cis-retinal / of binding of 11-cis-retinal to opsin (purified WT opsin)	inhibition of pigment formation of opsin with 11-cis-retinal / of binding of 11-cis-retinal to opsin (purified WT opsin; listed as SN 10011)
CC(=O)c1c(C)n[nH]c1C [SN10011, 1-(3,5-dimethyl-1H-pyrazol-4-yl)ethanone]	did not show any absorption in the visible spectrum; also recorded: does not absorb in the visible spectrum	No pigment was formed; also recorded: no 500 nm absorbing pigment was generated	much lower	reversibly inhibits binding of 11-cis-retinal; also recorded: significant effect on inhibition of pigment formation; also recorded: inhibited	inhibits the binding of 11-cis-retinal to opsin in vitro
CC(=O)/C=C/C1=C(C)CCCC1(C)C [β-ionone, reference compound]	–	does not form a light absorbing pigment; also recorded: does not itself form a 500 nm absorbing pigment; also recorded: no 500 nm absorbing pigment was formed	–	inhibit binding of retinal to the site; also recorded: inhibited opsin regeneration in a dose dependent manner	–
